The values below come from patent publication US7378535B2, “Production of furanones” (Unisearch Limited, A.C.N., priority 1998, dated 2008).

On to `CC(O)C1=CC(=C(Br)Br)OC1=O` (stereo not shown) [Example 7, 5-(Dibromomethylene)-3-(1-hydroxyethyl)-2(5H)-furanone], for which the melting point (usually the temperature, or range, at which the solid turns liquid) was found to be 100 °C.
